In brackets after ≈: the same amount, converted by molar mass. Where two headings read alike, the source gives them in different places.
How the values were obtained:
[1] = test system: herpes simplex virus 1, strain SC16; assay: CPE inhibition test (replicating cells) for herpes simplex virus 1; type: cell-based; conditions: Human alphaherpesvirus 1, SC16, MRC5, SC16 strain in MRC-5 cells; each figure is the value obtained in a single test; read-out: IC₅₀ Herpes Simplex Type 1 virus SC16 strain in MRC-5 cells
From the text: MRC-5 cells (in Eagles MEM containing 5% newborn calf serum) were infected in suspension with herpes simplex virus 1, strain SC16 (approximately one infectious particle per 10 cells). One hundred microlitres of the infected cell suspension (containing approximately 2 x 10⁴ cells) were dispensed into each well of a 96 well microtitre plate containing an equal volume of the test drug in medium (Eagles MEM containing 5% newborn calf serum) at concentrations ranging from 200 to 0.09»g/ml (3-fold dilution steps); final concentrations therefore ranged between 100 to 0.045»g/ml. The plates were then incubated at 37°C in a humidified atmosphere of 5% CO₂ for 3 days when the virus-induced cytopathic effect (CPE) in the control wells reached 100%. The plates were fixed in formal saline and stained with carbol fuchsin. […] Plates of uninfected cells were set up in parallel to determined the minimum concentration of test compound which caused cytotoxicity.

[2] = test system: herpes simplex virus 1 (HSV-1; strain HFEM); assay: Plaque reduction test for herpes simplex virus 1; type: cell-based; conditions: Human alphaherpesvirus 1, Vero, HFEM strain in Vero cells; each figure is the value obtained in a single test; read-out: IC₅₀ Herpes Simplex Type 1 virus HFEM strain in Vero cells
Experimental: (§1) Cells (Vero or MRC-5) were grown to confluence in 24 well multi-dishes (well diameter = 1.5cm). The drained cell monolayers were each infected with approximately 50 infectious particles of herpes simplex virus 1 (HSV-1; strain HFEM) or herpes simplex virus 2 (HSV-2; strain MS) in 100»l of phosphate-buffered saline. The virus was adsorbed for 1 hour at room temperature. After adsorption, residual inoculum was removed from each well and replaced with 0.5ml of Eagle's MEM containing 5% newborn calf serum and 0.9% agarose (A37). Once the agarose had set, dilutions of the test compound, which had been prepared in Eagle's MEM (containing 5% newborn calf serum), were added, each well receiving 0.5ml of liquid overlay. The test compound was diluted to give the following series of concentrations: 200, 60, 20, 6....0.06»g/ml; final concentrations in the assay ranged, therefore, between 100»g/ml and 0.03»g/ml. The infected cultures were incubated at 37°C in a humidified atmosphere of 5% CO₂ until plaques were clearly visible (2 or 3 days for Vero cells, usually 1 day for MRC-5 cells).
(§2) Cultures from 1 and 2 were fixed in formal saline, the agarose overlays were carefully washed off, and then the cell monolayers were stained with carbol fuchsin. A stereo microscope was used to count plaques. The IC₅₀ (concentration of drug which inhibits plaque number by 50% relative to the number of plaques observed in virus control monolayers) of the test compound was calculated. In addition, the monolayers were examined for evidence of drug-induced cytotoxicity; the minimum concentration at which cytotoxicity occurs was recorded.

[3] = test system: herpes simplex virus 2 (HSV-2; strain MS); assay: Plaque reduction test for herpes simplex virus 2; type: cell-based, Herpes Simplex Type 2 virus; conditions: each figure is the value obtained in a single test
Experimental: as §1, §2

[4] = test system: varicella zoster virus (VZV; Ellen strain); assay: Plaque reduction test for varicella zoster virus; type: cell-based; conditions: Human alphaherpesvirus 3, MRC5, Ellen strain in MRC-5 cells; each figure is the value obtained in a single test; read-out: IC₅₀ Varicella Zoster virus Ellen strain in MRC-5 cells
Experimental: MRC-5 cells were grown to confluence in 24 well multi-dishes (well diameter = 1.5cm). The drained cell monolayers were each infected with approximately 50 infectious particles of varicella zoster virus (VZV; Ellen strain) in 100»l of phosphate-buffered saline. The virus was adsorbed for 1 hour at room temperature. After adsorption, residual inoculum was removed from each well and replaced with 0.5ml of Eagle's MEM containing 5% heat-inactivated foetal calf serum and 0.9% agarose (A37). Once the agarose had set, dilutions of the test compound, which had been prepared in Eagle's MEM (containing 5% heat-inactivated foetal calf serum), were added, each well receiving 0.5ml of liquid overlay. The test compound was diluted to give the following series of cencentrations: 200, 60, 20, 6....0.06»g/ml; final concentrations in the assay ranged, therefore, between 100»g/ml and 0.03»g/ml. The infected cultures were incubated at 37°C in a humidified atmosphere of 5% CO₂ until plaques were clearly visible (5 or 6 days).
as §2

[5] = test system: visna virus (strain K184); assay: CPE inhibition test (established monolayer) for lentiviruses; type: cell-based; conditions: minimum concentration giving complete protection of the cell monolayers
Experimental: 3 x 10⁴ sheep choroid plexus (SCP) cells were plated into individual wells of a 96 well microtitre plate in 100»l of Eagle's MEM with Hanks salts containing 10% heat inactivated foetal calf serum (FCS). When monolayers had become established (after 1 or 2 days growth) they were washed with 200»l of maintenance medium (Eagle's MEM with Hanks salts containing 0.5% FCS) and infected with 100»l of visna virus (strain K184) in maintenance medium (30 TCID₅₀/ml). Test samples were diluted with maintenance medium in further 96 well microtitre plates over the range 200-0.09»g/ml by 3-fold dilution steps. 100»l of the diluted samples was then transferred directly onto virus-infected monolayers (final concentration range therefore 100-0.045»g/ml) and incubated at 37°C in a humidified, 5% CO₂ incubation until virus-induced CPE was maximal in the untreated virus-infected controls (usually 12-14 days). The plates were fixed with formal saline and stained with crystal violet. Virus-induced CPE was then scored microscopically and the minimum concentration of sample giving complete protection of the cell monolayers (MIC) determined.

[6] = Human alphaherpesvirus 2, MRC5, MS strain in MRC-5 cells, read-out: IC₅₀ Herpes Simplex Type 2 virus MS strain in MRC-5 cells
[7] = Human alphaherpesvirus 2, Vero, MS strain in Vero cells, read-out: IC₅₀ Herpes Simplex Type 2 virus MS strain in Vero cells

Row | SMILES | IC50 [1] | IC50 [2] | IC50 [3, 6] | IC50 [4] | MIC Visna Virus K184 strain in SCP cells [5] | IC50 [3, 7]
1 | CC(=O)OCCCOn1cnc2c(=O)[nH]c(N)nc21 [Example 2, 9-(3-Acetoxyprop-1-oxy)guanine] | 0.4 µg/mL (≈ 1.5 µM) | 4.3 µg/mL (≈ 16.1 µM) | 1.1 µg/mL (≈ 4.12 µM) |  |  | 
2 | Nc1nc2c(ncn2OCCCOC(=O)c2ccccc2)c(=O)[nH]1 [Example 3, 9-(3-Benzoyloxyprop-1-oxy)guanine] | 1.2 µg/mL (≈ 3.64 µM) | 2.8 µg/mL (≈ 8.5 µM) | 2.1 µg/mL (≈ 6.38 µM) |  |  | 
3 | CCCCCC(=O)OCCCOn1cnc2c(=O)[nH]c(N)nc21 [Example 11, 9-(3-Hexanoyloxyprop-1-oxy)guanine] | 0.1 µg/mL (≈ 0.309 µM) | 0.7 µg/mL (≈ 2.16 µM) |  | 0.1 µg/mL (≈ 0.309 µM) |  | 
4 | Nc1nc2c(ncn2OCCCO)c(=O)[nH]1 [Example 1, 9-(3-Hydroxyprop-1-oxy)guanine] |  | 0.4 µg/mL (≈ 1.78 µM) | 0.1 µg/mL (≈ 0.444 µM) |  | 3.0 »g/ml | 0.3 µg/mL (≈ 1.33 µM)
5 | Nc1nc2c(ncn2O[C@H](CO)CCO)c(=O)[nH]1 [Example 15, (S)-9-(1,4-Dihydroxybut-2-oxy)guanine] | 7.4 µg/mL (≈ 29 µM) |  |  |  |  | 
6 | CCOc1nc(N)nc2c1ncn2OCCCO [Example 4, 2-Amino-6-ethoxy-9-(3-hydroxyprop-1-oxy)purine] | 100 µg/mL (≈ 395 µM) |  | 67 µg/mL (≈ 265 µM) | 21 µg/mL (≈ 82.9 µM) |  | 
7 | Nc1nc2c(ncn2OCC(O)CO)c(=O)[nH]1 (stereo not shown) [Example 6, 9-(2,3-Dihydroxyprop-1-oxy)guanine] | 1.9 µg/mL (≈ 7.88 µM) | 8.6 µg/mL (≈ 35.7 µM) | 0.7 µg/mL (≈ 2.9 µM) | 2.3 µg/mL (≈ 9.54 µM) | 10 »g/ml | 1.6 µg/mL (≈ 6.63 µM)
8 | Nc1nc2c(ncn2OC(CO)CCO)c(=O)[nH]1 (stereo not shown) [Example 8, 9-(1,4-Dihydroxybut-2-oxy)guanine] | 11 µg/mL (≈ 43.1 µM) |  |  |  | 30 »g/ml | 
9 | Nc1nc2c(ncn2O[C@@H](CO)CCO)c(=O)[nH]1 [Example 14, (R)-9-(1,4-Dihydroxybut-2-oxy)guanine] | 100 µg/mL (≈ 392 µM) |  |  |  |  | 
10 | Nc1ncc2ncn(OCC(O)CO)c2n1 (stereo not shown) [Example 7, 2-Amino-9-(2,3-dihydroxyprop-1-oxy)purine] | 100 µg/mL (≈ 444 µM) |  |  | 57 µg/mL (≈ 253 µM) |  | 
11 | Nc1nc2c(ncn2OCC(CO)CO)c(=O)[nH]1 [Example 5, 9-(3-Hydroxy-2-hydroxymethylprop-1-oxy)guanine] | 1.8 µg/mL (≈ 7.05 µM) | 1.5 µg/mL (≈ 5.88 µM) | 1.5 µg/mL (≈ 5.88 µM) | 2.9 µg/mL (≈ 11.4 µM) | 0.1 »g/ml | 1.5 µg/mL (≈ 5.88 µM)
